Laboratory results: US20110028383A1, “Activated Forms Of Notch And Methods Based Thereon” (priority 1997, published 2011)
Entries after “also recorded” stand apart in the source; their conditions may differ.

Assays:
[1] = tested on: human Notch2; experiment: Pulse chase labeling of Notch2 processing in SJ-NB5 cells; assay type: cell-based; conditions: for breakdown (cleavage, processing) of full-length Notch: [35S] pulse 20 min and chase at 37° C., immunoprecipitated by PGHN, Brefeldin A 10 μg/ml; for appearance of N^EC: pulse labeling
Experimental: SJ-NB5 cells were grown on 60 mm petri dishes until ˜80% confluent, washed once with PBS, and then incubated in methionine and cysteine free DMEM medium for 1 hr. 100 μCi^35S-translabled Met-Cys (ICN) was added to each plate, pulsed at 37° C. for 20 minutes, and chased for varying times and temperatures. The chase began by adding 2× volume complete medium plus 100 μg/ml cold methionine and cysteine to the plates. For Brefeldin A samples, Brefeldin A was maintained at a final concentration of 10 μg/ml in starvation medium as well as in both pulse and chase. Cells were washed with cold PBS and lysed in lysis buffer (Zagouras et al., 1995, Proc. Natl. Acad. Sci. USA 92:6414-6418) containing 1 mM Pefabloc SC, 0.7 μg/mlpepstatin A, and 0.5 μg/ml leupeptin. Cell lysates were centrifuged at 14,000 rpm for 5 minutes. The supernatants were transferred to fresh tubes and pre-cleared by incubating with 5 μl normal rabbit serum and 50 μl 10% protein A-sephrose CL-4B (Pharmacia LKB) for 1 hr at 4° C. The beads were pelleted by centrifugation and the supernatants were divided into two equal aliquots. One aliquot was immunoprecipitated by incubating with rabbit polyclonal anti-human Notch2 antibody PGHN and 50 μl protein A-sephrose CL-4B for 2-3 hrs or overnight at 4° C. The other aliquot was immunoprecipitated by normal rabbit serum as control. The beads were washed three times in RIPA buffer B (150 mM NaCl, 1% NP40, 0.5% DOC, 0.1% SDS, 50 mM Tris, pH 7.5); washed once in 50 mM Tris-Cl, 150 mM NaCl, pH 7.5; resuspended in 50 μl SDS-sample buffer; boiled; and subjected to a 3-15% gradient SDS-PAGE. The gel was fixed in 25% iso-propanol, 10% acetic acid for 30 minutes, soaked in Amplify™ (Amersham) for 15-30 minutes, dried, and exposed to X-ray film at −70° C.
In an attempt to determine the cellular compartment where Notch is cleaved, pulse labeling analyses were carried out in the presence of drugs that are known to interfere with cellular trafficking.

[2] = tested on: Drosophila Notch N^EC/N^TM heterodimer; experiment: Tethering of N^EC to N^TM in Notch expressing S2 cells (supernatant Western blot, sucrose density centrifugation); assay type: cell-based; conditions: for dissociation of N^EC and N^TM: calcium ion chelators
Experimental: Briefly, Drosophila S2 cells were induced to express Notch with the addition of 0.7 mM CuSO4 for 16 hours; Notch expression was under the control of the metallothionien promoter (Fehon et al., 1990, Cell 61:523-534). The cells were washed once with 20 mM Tris-HCl, 150 mM NaCl, 2 mM CaCl2 (TBS/Ca^2+) and were resuspended in TBS/Ca^2+ or in 20 mM Tris-HCl, 150 mM NaCl. 2 mM EDTA (TBS/EDTA) and incubated for one hour at room temperature under slow rocking. The cells were centrifuged and pelleted and the supernatants were collected for SDS-PAGE and Western blot analysis. The blot was probed with a monoclonal antibody directed to the extracellular domain of Notch, specifically against EGF-like repeats 5-7 of Drosophila Notch (clone C461.3B). This monoclonal was detected using goat anti-mouse horseradish peroxidase secondary antibody and chemiluminescent substrate.
The extracts were sedimented through a 5-20% sucrose gradient in the above-respective buffers (without the protease inhibitors) in a Beckman SW50.1 rotor at 34,000 rpm for 16 hours at 4° C. Fractions were collected and precipitated with 10% trichloroacetic acid. The protein pellets were resuspended in SDS-PAGE sample buffer and analyzed by SDS-PAGE and Western blotting. Blots were probed with a mixture of monoclonal antibodies C461.3B and 9C6 (directed against the intracellular domain of Notch) and detected as described above.

[3] = tested on: Notch/Delta; experiment: Co-immunoprecipitation of N^TM with Delta antibodies after Notch/Delta cell aggregation; assay type: cell-based, Drosophila; conditions: aggregation disrupted by depleting calcium from the medium; data not shown
Experimental: Human neuroblastoma (SJ-NB5) cells were grown at 37° C. in an atmosphere of 5% CO2/95% air, in RPMI (Gibco-BRL, Grand Island, N.Y.) supplemented with 10% fetal bovine serum (Gibco BRL, Grand Island, N.Y.), 2 mM L-Glutamine (ICN Biomedicals, Inc., Costa Mesa, Calif.), 100 μg/ml penicillin, and 100 μg/ml streptomycin (ICN Biomedicals, Inc., Costa Mesa, Calif.). Cells were dissociated using phosphate buffered saline (PBS) with 0.25% trypsin and 0.03% EDTA (J. T. Baker, Inc., Phillipsburg, N.J.), and subcultured at ratios of 1:3 to 1:10. HaCat Cells (cultured human keratinocytes) were a gift from Dr. Michael Reiss (Yale University). Aggregation experiments and the maintenance of Drosophila S2 and KC cells were as described in Fehon et al., 1990, Cell 61:523-534.
The biological significance of the heterodimeric Notch form would be questionable if it could not bind ligands. […] If the heterodimeric form interacts with Delta after aggregation then the 110 kd N^TM fragment should co-immunoprecipitate using Delta antibodies.

## C[C@H]1CCC/C=C/[C@@H]2C[C@H](O)C[C@H]2[C@H](O)/C=C/C(=O)O1 [Brefeldin A]
[1]
  breakdown (cleavage, processing) of full-length Notch: effectively blocks the breakdown of full-length Notch; also recorded: blocked; also recorded: inhibit the cleavage of Notch
  appearance of N^EC: is inhibited

## CCN(CC)CCCC(C)Nc1ccnc2cc(Cl)ccc12 (stereo not shown) [chloraquinone]
[1]
  breakdown (cleavage, processing) of full-length Notch: do not affect processing
  appearance of N^EC: not inhibited

## CC[C@@]1([C@@H]2O[C@@H]([C@H]3O[C@@](O)(CO)[C@H](C)C[C@@H]3C)C[C@@H]2C)CC[C@H]([C@]2(C)CC[C@]3(C[C@H](O)[C@@H](C)[C@@H]([C@@H](C)[C@@H](OC)[C@H](C)C(=O)O)O3)O2)O1 [monensin]
[1]
  breakdown (cleavage, processing) of full-length Notch: do not affect processing
  appearance of N^EC: not inhibited

## O=C(O)CN(CCN(CC(=O)O)CC(=O)O)CC(=O)O [EDTA]
[2]; 2 mM EDTA, Tris-HCl saline buffer, one hour at room temperature, Western blot
  N^EC in the supernatant of Notch expressing S2 cells: N^EC is present in the supernatant
[2]; S2 cell extracts, TBS/EDTA with 1% Triton X-100, 5-20% sucrose gradient
  sedimentation of N^EC and N^TM in sucrose density centrifugation: sediment separately
[2]
  dissociation of N^EC and N^TM: dissociate

## O[C@H](CS)[C@H](O)CS (racemic) [dithiothreitol (DTT), dithiothreitol]
[2]
  sensitivity of the N^EC/N^TM interaction to reducing agents: sensitive

## O=C(O)CN(CCOCCOCCN(CC(=O)O)CC(=O)O)CC(=O)O [EGTA]
[2]
  dissociation of N^EC and N^TM: dissociate
[3]
  precipitation of N^TM by Delta antibodies: fail to efficiently precipitate N^TM

## OCCS [β-mercaptoethanol]
[2]
  sensitivity of the N^EC/N^TM interaction to reducing agents: sensitive
